Results published in US8530512B2, “Broad spectrum gram-positive antimicrobials and anthelmintics with efficacy against drug-resistant strains and Mycobacterium species” (priority 2004, dated 2013).
≈ marks a conversion by molar mass, not a printed value. Read-outs that look alike come from different tables or passages of the source.

Columns and labels:
[1] = system: Staphylococcus aureus ATCC 29213; test: microbe, parasite or virus in culture; type: cell-based; conditions: for MIC: Staphylococcus aureus, ATCC29213
[2] = system: Staphylococcus aureus MRSA MC-1; test: microbe, parasite or virus in culture; type: cell-based; conditions: for MIC: Staphylococcus aureus, MRSA
M. smegmatis = test: MIC assay; type: cell-based; conditions: for MIC: Mycolicibacterium smegmatis, read-out: MIC M. smegmatis
Mycobacterium avium = test: MIC assay; type: cell-based; conditions: Table 6; for MIC: Mycobacterium avium, read-out: MIC M. avium
Mycobacterium chelonae = test: MIC assay; type: cell-based; conditions: Table 6; for MIC: read-out: MIC M. chelonae
Mycobacterium fortuitum = test: MIC assay; type: cell-based; conditions: Table 6; for MIC: Mycolicibacterium fortuitum, read-out: MIC M. fortuitum
[3] = system: Mycobacterium intracellulare; test: MIC assay; type: cell-based; conditions: Table 6; for MIC: Mycobacterium intracellulare, read-out: MIC M. intracellulare
M. kansasii = test: MIC assay; type: cell-based; conditions: Table 6; for MIC: Mycobacterium kansasii, read-out: MIC M. kansasii
[4] = system: Enterococcus faecium VRE 1; test: organism not typed; type: cell-based; conditions: for MIC E. faecium VRE 1, G+: Table 3; for MIC: read-out: MIC VRE
Streptococcus pyogenes = test: microbe, parasite or virus in culture; type: cell-based; conditions: for MIC: Streptococcus pyogenes, per-compound listing, Example 6, read-out: MIC S. pyogenes; for MIC S. pyogenes, G+: Table 3
Bacillus cereus = test: microbe, parasite or virus in culture; type: cell-based; conditions: for MIC: Bacillus cereus, per-compound listing, Example 6, read-out: MIC B. cereus; for MIC B. cereus, G+ (anthrax surrogate): Table 3
C. elegans = test: motility assay; type: in vivo; set-up: key to Movement score, 1/1600 / Movement score, 1/800 / Movement score, 1/400 / Movement score, 1/200 / Movement score, 1/100: normal (−); slow (+); very slow (++); not motile/paralyzed (+++); conditions: for Movement score, 1/100: dilution 1/100 of stock (10.24 μg/μL; SK-03-92 1.024 μg/μL); for Movement score, 1/100 / Movement score, 1/200 / Movement score, 1/400 / Movement score, 1/800 / Movement score, 1/1600: Ive 1 ng/μL in all wells; for Movement score, 1/200: dilution 1/200 of stock (10.24 μg/μL; SK-03-92 1.024 μg/μL); for Movement score, 1/400: dilution 1/400 of stock (10.24 μg/μL; SK-03-92 1.024 μg/μL); for Movement score, 1/800: dilution 1/800 of stock (10.24 μg/μL; SK-03-92 1.024 μg/μL); for Movement score, 1/1600: dilution 1/1600 of stock (10.24 μg/μL; SK-03-92 1.024 μg/μL), overnight 20° C.; for effect on worms at the lowest concentrations tested: at least triplicate
C. elegans L1 larvae = test: developmental assay; type: in vivo; set-up: key to Developmental score, 1/1600 / Developmental score, 1/800 / Developmental score, 1/400 / Developmental score, 1/200 / Developmental score, 1/100: dead (+++); distressed (++); slightly delayed (+); the same as M9-only untreated wells (−); conditions: after four days, Ive 1 ng/μL in each well; for Developmental score, 1/100: dilution 1/100; for Developmental score, 1/200: dilution 1/200; for Developmental score, 1/400: dilution 1/400; for Developmental score, 1/800: dilution 1/800; for Developmental score, 1/1600: dilution 1/1600
[5] = Table 6, read-out: MIC S. aureus ATCC 29213
[6] = per-compound listing, Example 6, read-out: MIC S. aureus
[7] = per-compound listing, Example 6

SMILES | MIC [1, 5] [µg/mL] | MIC ([2]; read-out: MIC S. aureus MC-1) [µg/mL] | MIC (M. smegmatis; Table 6) [µg/mL] | MIC (Mycobacterium avium) [µg/mL] | MIC (Mycobacterium chelonae) [µg/mL] | MIC (Mycobacterium fortuitum) [µg/mL] | MIC [3] [µg/mL] | MIC (M. kansasii) [µg/mL] | MIC [1, 6] [µg/mL] | MIC ([2]; read-out: MIC MRSA) [µg/mL] | Movement score, 1/100 (C. elegans) | Movement score, 1/200 (C. elegans) | Movement score, 1/400 (C. elegans) | Movement score, 1/800 (C. elegans) | Movement score, 1/1600 (C. elegans) | Developmental score, 1/100 (C. elegans L1 larvae) | Developmental score, 1/200 (C. elegans L1 larvae) | Developmental score, 1/400 (C. elegans L1 larvae) | Developmental score, 1/800 (C. elegans L1 larvae) | Developmental score, 1/1600 (C. elegans L1 larvae) | also measured
CCOC(=O)/C=C\Sc1ccccc1C(=O)OC [SK-04-56] | > 512 | > 512 | 64 (≈ 240 µM) | 64 (≈ 240 µM) | 64 (≈ 240 µM) | 64 (≈ 240 µM) | 256 (≈ 961 µM) | 64 (≈ 240 µM) |  |  |  |  |  |  |  |  |  |  |  |  | 
COc1cc(O)cc(/C=C/Oc2cccc(C)c2)c1 [Compound A9, 3-Methylphenyl-E-(3-hydroxy-5-methoxy)-styryl ether] |  |  |  |  |  |  |  |  | 16 (≈ 62.4 µM) | 32 (≈ 125 µM) | +++ | +++ | ++ | ++ | + | +++ | +++ | +++ | − | − | MIC E. faecium VRE 1, G+ [4]: 32 µg/mL (≈ 125 µM); MIC [4]: 32 µg/mL (≈ 125 µM); MIC (Streptococcus pyogenes): 32 µg/mL (≈ 125 µM); MIC S. pyogenes, G+ (Streptococcus pyogenes): 32 µg/mL (≈ 125 µM); MIC (Bacillus cereus): 32 µg/mL (≈ 125 µM); MIC B. cereus, G+ (anthrax surrogate) (Bacillus cereus): 16 µg/mL (≈ 62.4 µM); MIC (M. smegmatis; [7]): 64 µg/mL (≈ 250 µM); effect on worms at the lowest concentrations tested (C. elegans): reduced motility, paralysis, or death
COc1cc(O)cc(C#Cc2ccccc2)c1 [SK-04-08] | 32 (≈ 143 µM) | 1 (≈ 4.46 µM) | 64 (≈ 285 µM) | 16 (≈ 71.3 µM) |  | 32 (≈ 143 µM) | 16 (≈ 71.3 µM) | 32 (≈ 143 µM) |  |  | +++ | +++ | ++ | + | + | +++ | +++ | − | − | − | 
COc1cc(O)cc(/C=C/Oc2ccc(C)cc2)c1 [Compound A10, 4-Methylphenyl-E-(3-hydroxy-5-methoxy)-styryl ether] |  |  |  |  |  |  |  |  | 16 (≈ 62.4 µM) | 32 (≈ 125 µM) | +++ | +++ | +++ | ++ | + | +++ | +++ | ++ | − | − | MIC E. faecium VRE 1, G+ [4]: 32 µg/mL (≈ 125 µM); MIC [4]: 32 µg/mL (≈ 125 µM); MIC (Streptococcus pyogenes): 32 µg/mL (≈ 125 µM); MIC S. pyogenes, G+ (Streptococcus pyogenes): 32 µg/mL (≈ 125 µM); MIC (Bacillus cereus): 64 µg/mL (≈ 250 µM); MIC B. cereus, G+ (anthrax surrogate) (Bacillus cereus): 64 µg/mL (≈ 250 µM); MIC (M. smegmatis; [7]): > 128 µg/mL; effect on worms at the lowest concentrations tested (C. elegans): reduced motility, paralysis, or death
COc1cc(O)cc(/C=C/c2cccc(O)c2)c1 [SK-04-03] | 32 (≈ 132 µM) | 16 (≈ 66 µM) | 64 (≈ 264 µM) | 8 (≈ 33 µM) | 64 (≈ 264 µM) | 64 (≈ 264 µM) | 16 (≈ 66 µM) | 64 (≈ 264 µM) |  |  | ++ | ++ | + | + | − | +++ | + | − | − | − | 
CCOC(=O)/C=C\Sc1ncccn1 [SK-04-58F] |  |  |  |  |  |  |  |  |  |  |  |  |  |  |  |  |  |  |  |  | MIC S. aureus ATCC 29213 ([1]; Table 6): >512 µg/mL; MIC S. aureus MC-1 ([2]; Table 6): >512 µg/mL; MIC M. smegmatis (M. smegmatis; Table 6): 64 µg/mL (≈ 304 µM); MIC M. avium (Mycobacterium avium): 64 µg/mL (≈ 304 µM); MIC M. chelonae (Mycobacterium chelonae): 32 µg/mL (≈ 152 µM); MIC M. fortuitum (Mycobacterium fortuitum): 64 µg/mL (≈ 304 µM); MIC M. intracellulare [3]: 128 µg/mL (≈ 609 µM); MIC M. kansasii (M. kansasii): 64 µg/mL (≈ 304 µM)
COc1cc(O)cc(/C=C/Oc2cccc3ccccc23)c1 [SK-04-22] | 16 (≈ 54.7 µM) | 16 (≈ 54.7 µM) |  | 64 (≈ 219 µM) | 256 (≈ 876 µM) | 128 (≈ 438 µM) | 128 (≈ 438 µM) | 64 (≈ 219 µM) | 32 (≈ 109 µM) | 16 (≈ 54.7 µM) | ++ | + | + | − | − |  |  |  |  |  | MIC (Bacillus cereus): 8 µg/mL (≈ 27.4 µM); MIC (M. smegmatis; [7]): 128 µg/mL (≈ 438 µM); MIC M. smegmatis (M. smegmatis; Table 6): 128 µg/mL (≈ 438 µM)
